Several values for one entry are separate records, joined by “and”; a condition that tells them apart may be missing. Equal entries are not always repeated.
Assay: Phase 1 trial, PK profile of glepaglutide after SC injections in healthy subjects
Type: in vivo, human
Conditions: individual subjects; for Half-life of ZP2469 in the interval from 72 to 168 hours post dose: final data; for Half-life ZP2469: preliminary data
Description: A Phase 1 clinical trial to characterize the pharmacokinetic (PK) profiles of glepaglutide (ZP1848) and its primary active metabolites following once-weekly and once daily subcutaneous (SC) injections and after a single intravenous (IV) infusion in healthy subjects was conducted. This included evaluating the pharmacodynamic effects on plasma citrulline levels following SC dosing in healthy subjects. The trial confirmed the feasibility of dosage regimes in which GLP-2 analogues are administered to patients in weekly dosage regimes and compare weekly dosage regimes with daily dosing.
The trial design was a single-center, open-label, partially randomized, 3-part, parallel group trial to characterize the PK profile of glepaglutide administered by SC injection once daily for 7 days (Part 1), SC injection once weekly for 6 weeks (Part 2), and as a single IV infusion (Part 3) in healthy subjects.
Glepaglutide was supplied as an aqueous solution at concentrations of 2 and 10 mg/mL. • Group A: 1 mg glepaglutide once daily, given as single SC injections on Days 1 to 7. • Group B: 5 mg glepaglutide once daily, given as single SC injections on Days 1 to 7. • Group C: 5 mg glepaglutide once weekly, given as single SC injections on Days 1, 8, 15, 22, 29, and 36. • Group D: 10 mg glepaglutide once weekly, given as single SC injections on Days 1, 8, 15, 22, 29, and 36. • Group E: 1 mg glepaglutide, given as an IV infusion at a rate of 4 mg/h for 15 minutes on Day 1.
Blood samples were collected for the analysis of plasma concentrations of glepaglutide and its primary active metabolites, ZP2469 (ZP18481-34) and ZP2711 (ZP18481-35); samples were assayed using validated analytical methods. The following PK parameter estimates were calculated using standard non-compartmental methods: terminal elimination half-life (t1/2), total body clearance of drug after IV administration (CL; IV dose, parent drug only), apparent total clearance (CL/F; SC doses, parent drug only), volume of distribution at steady state (Vss; IV dose, parent drug only), apparent volume of distribution at steady state (Vss/F; SC doses, parent drug only), volume of distribution (Vz; IV dose, parent drug only), apparent volume of distribution (Vz/F; SC doses, parent drug only), maximum observed plasma concentration (Cmax), area under the plasma concentration-time curve (AUC) over a dosing interval (AUCT), AUC from time zero to infinity (AUCinf), AUC from time zero to the time of the last measurable concentration (AUClast), and time of the maximum observed plasma concentration (tmax). Metabolite exposure (based on Cmax, AUCT, and AUCinf) were determined for each group as a ratio of the 2 primary active metabolites, ZP2469 (ZP18481-34) and ZP2711 (ZP18481-35), relative to the glepaglutide parent drug.
The PK parameters estimates for glepaglutide, ZP2469 (ZP18481-34), and ZP2711 (ZP18481-35) were listed and summarized using standard descriptive statistics. The primary PK parameters are t1/2 for glepaglutide, ZP2469 (ZP18481-34), and ZP2711 (ZP18481-35); and CL (IV dose), CL/F (SC doses), Vss (IV dose), Vss/F (SC dose), Vz (IV dose), and Vz/F (SC doses) for glepaglutide. The half-life is calculated as LN(2)/ke where ÷ke is estimate from the slope of the terminal part of the LN(concentration) versus time curve, with repeats regressions of LN(concentration) values using the last three points with non-zero concentrations, then the last four points, last five points, etc. Points with a concentration value of zero are not included. Points prior to Cmax are not used. […] 2) ke must be calculated from at least three data points. 3) The estimated slope must be negative, so that its negative ke is positive. The results of the calculations carried out with preliminary data are shown in Table 4, while the results of the calculations with the complete final data set are shonw in Table 5. […]

Half-life ZP2469 (Group D, 10 mg glepaglutide SC once weekly, after 1 dose): 52 h and 38 h and 43 h and 34 h
Substance: H-HGEGTFSSELATILDALAARDFIAWLIATKITDK-OH [ZP2469]
Half-life of ZP2469 in the interval from 72 to 168 hours post dose (Group A, 1 mg once daily, after 7 doses): 75 h and 87 h and 80 h and 54 h and 57 h
Half-life of ZP2469 in the interval from 72 to 168 hours post dose (Group B, 5 mg once daily, after 7 doses): 168 hr and 77 hr and 101 hr (2×) and 53 hr and 34 hr and 46 hr and 100 hr and 40 hr and 84 hr and 50 hr and 42 hr
Half-life of ZP2469 in the interval from 72 to 168 hours post dose (Group C, 5 mg once weekly, after 1 dose): 329 hr and 41 hr and 38 hr and 48 hr (2×) and 59 hr and 61 hr and 217 hr and 45 hr and 39 hr and 91 hr and 75 hr
Half-life of ZP2469 in the interval from 72 to 168 hours post dose (Group C, 5 mg once weekly, after 6 doses): 26 h and 35 h and 59 h and 75 h and 57 h and 43 h and 52 h and 107 h and 33 h and 68 h and 47 h and 65 h and 452 h
Half-life of ZP2469 in the interval from 72 to 168 hours post dose (Group D, 10 mg once weekly, after 1 dose): 66 hr and 54 hr and 120 hr and 36 hr and 46 hr and 35 hr and 60 hr and 26 hr and 158 hr and 53 hr and 43 hr (2×) and 33 hr and 45 hr and 38 hr
Half-life of ZP2469 in the interval from 72 to 168 hours post dose (Group D, 10 mg once weekly, after 6 doses): 60 hr (2×) and 55 hr and 74 hr and 58 hr and 70 hr and 59 hr and 30 hr and 102 hr and 53 hr and 42 hr and 48 hr and 56 hr and 17 hr
Half-life ZP2469 (Group A, 1 mg glepaglutide SC once daily, after 7 doses): 20 h and 95 h and 76 h and 36 h and 33 h and 87 h
Half-life ZP2469 (Group B, 5 mg glepaglutide SC once daily, after 7 doses): 75 h and 108 h and 209 h and 59 h and 139 h and 94 h
Half-life ZP2469 (Group C, 5 mg glepaglutide SC once weekly, after 1 dose): 38 hr (2×) and 100 hr and 17 hr and 48 hr and 20 hr
Half-life ZP2469 (Group C, 5 mg glepaglutide SC once weekly, after 6 doses): 11 h and 17 h and 16 h and 32 h and 40 h and 22 h
Half-life ZP2469 (Group D, 10 mg glepaglutide SC once weekly, after 6 doses): 60 h and 55 h and 74 h and 34 h and 58 h
